In the first assay the target is HSET (Homo sapiens (Human), UniProt Q9BW19).
Chain of HSET (Q9BW19 whole entry): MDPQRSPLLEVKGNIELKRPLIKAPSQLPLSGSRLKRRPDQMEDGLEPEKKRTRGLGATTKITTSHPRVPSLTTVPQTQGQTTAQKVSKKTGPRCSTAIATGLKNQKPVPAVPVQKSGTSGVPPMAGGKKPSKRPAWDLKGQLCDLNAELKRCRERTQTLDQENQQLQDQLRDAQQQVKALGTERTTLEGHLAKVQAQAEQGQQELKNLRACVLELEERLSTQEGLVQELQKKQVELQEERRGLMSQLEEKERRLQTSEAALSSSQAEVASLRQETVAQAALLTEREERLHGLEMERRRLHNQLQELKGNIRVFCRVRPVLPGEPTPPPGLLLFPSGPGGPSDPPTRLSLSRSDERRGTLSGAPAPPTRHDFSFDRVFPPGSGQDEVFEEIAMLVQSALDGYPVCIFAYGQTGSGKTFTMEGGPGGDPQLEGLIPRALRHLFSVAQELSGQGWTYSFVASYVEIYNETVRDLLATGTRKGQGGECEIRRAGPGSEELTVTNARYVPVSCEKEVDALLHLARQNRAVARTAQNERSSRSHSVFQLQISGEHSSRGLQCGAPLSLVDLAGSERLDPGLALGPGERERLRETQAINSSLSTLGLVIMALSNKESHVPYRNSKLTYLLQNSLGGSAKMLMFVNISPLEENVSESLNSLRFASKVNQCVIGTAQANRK
Experiment: not given
Particulars: literature (Watts et al., 2013; Zhang et al., 2016); read-out: HSET IC50 in biochemical assays; cited from earlier work.
Chain of HSET full length protein (Q9BW19 whole entry): as above
In general, IC50 refers to the point on the concentration scale where inhibition reaches its midpoint. Consider `O=C(O)c1cc(I)ccc1NC(=O)[C@H](Cc1ccccc1)NCc1ccccc1` [CW069], for which the IC50 is 75000 nM. For `COc1ccc(-c2nc(N)s[n+]2-c2ccccc2)cc1` [SR31527], the IC50 was 6600 nM.

The next assay concerns the target HSET full length protein (Homo sapiens (Human), UniProt Q9BW19). In words: HSET ADP-Glo Assay S - 3 μM ATP. In kind it is biochemical. Particulars: 5 nM HSET, 70 μg/mL microtubule, 80 min at rt, read-out: COMBINED HSET ADP GLO IC50. Summed up: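 ADP-Glo luminescence read-out: ATPase reaction at 3 μM ATP, 80 min at room temperature, after a 10 min compound preincubation. Enzyme was full-length human HSET at 5 nM, stimulated by 70 μg/mL paclitaxel-stabilised bovine microtubules in HEPES pH 6.8 buffer with MgCl2, EGTA, Triton X-100 and DTT.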
A general note: In ADP-Glo the light output rises with the ADP produced.
On to `Cc1nc(NC(=O)[C@@H](O)CNC(=O)c2cccc(-c3cnn(C)c3)c2)cn1C(=O)OC(C)C` [Example 269], for which the IC50 turned out to be 910 nM. Still for that read-out and setting: then `Cc1nc(NC(=O)[C@H](O)CNC(=O)c2cccc(-c3cnn(C)c3)c2)cn1C(=O)OC(C)C` [Example 270], with 5100 nM; and `CCOC(=O)n1cc(NC(=O)[C@@H](O)CNC(=O)c2cccc(-c3cnn(C)c3)c2)nc1C` [Example 271], with 4000 nM; and `Cc1nc(-c2ccc3ccnc(NCCC(=O)Nc4cnn(C(=O)OC(C)(C)C)c4)c3c2)no1` [Example 272, tert-Butyl 4-(3-{[7-(5-methyl-1,2,4-oxadiazol-3-yl)isoquinolin-1-yl]amino}propanamido)-1 H-pyrazole-1-carboxylate], with 160 nM. Same read-out and setting: then `CCCOC(=O)n1cc(NC(=O)CCNc2nccc3ccc(-c4noc(C)n4)cc23)cn1` [Example 273, Propyl 4-(3-{[7-(5-methyl-1,2,4-oxadiazol-3-yl)isoquinolin-1-yl]amino}propanamido)-1 H-pyrazole-1-carboxylate], with 80 nM; and `CCCOC(=O)n1cc(NC(=O)CCNC(=O)c2cccc(-c3noc(C)n3)c2)cn1` [Example 275, Propyl 4-(3-{[3-(5-methyl-1,2,4-oxadiazol-3-yl)phenyl]formamido}-propanamido)-1 H-pyrazole-1-carboxylate], with 11500 nM. Still for that read-out and setting: the same measure for `CCCOC(=O)c1sc(NC(=O)CCNC(=O)c2cccc(-c3noc(C)n3)n2)nc1C` [Example 276, Propyl 4-methyl-2-(3-{[6-(5-methyl-1,2,4-oxadiazol-3-yl)pyridin-2-yl]formamido}propanamido)-1,3-thiazole-5-carboxylate]: 37 nM; for `Cc1nc(-c2cccc(C(=O)NCCC(=O)Nc3nc(C)c(C(=O)OC(C)(C)C)s3)n2)no1` [Example 277, tert-Butyl 4-methyl-2-(3-{[6-(5-methyl-1,2,4-oxadiazol-3-yl)pyridin-2-yl]formamido}propanamido)-1,3-thiazole-5-carboxylate]: 155 nM; for `Cc1nc(-c2cccc(C(=O)NCCC(=O)Nc3nc(C)c(C(=O)OC(C)C)s3)n2)no1` [Example 278]: 71 nM. As for `Cc1nc(-c2cccc(C(=O)NCCC(=O)Nc3nc(C)c(C(=O)OC(C)(C)C)s3)c2F)no1` [Example 279], the IC50 came out at 860 nM. `CCCOC(=O)c1sc(NC(=O)CCNc2nccc3ccc(C)cc23)nc1C` [Example 280, Propyl 4-methyl-2-[3-[(7-methyl-1-isoquinolyl)amino]propanoyl-amino]thiazole-5-carboxylate]: the IC50 worked out at 141 nM.

These data come from patent US20250084074A1, “SUBSTITUTED HETEROCYCLES AS HSET INHIBITORS” (MERCK PATENT GMBH, priority 2022, published 2025).
